From US20100292255A1, “Therapeutic Compounds and Their Use in Treating Diseases and Disorders” (Myriad Pharmaceuticals, Inc., priority 2007, published 2010)

tested on: T1, purified human Hsp90; assay: Hsp90 binding assay: displacement of BODIPY-labeled geldanamycin measured by fluorescence polarization; details: 5 μM compound; BODIPY-GM 10 nM, Hsp90 30 nM, overnight at room temperature
T1 construct: purified human Hsp90 (Stressgen, SPP-770)
How it was run: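 Purified human Hsp90 at 30 nM and 10 nM BODIPY-GM tracer were incubated overnight at room temperature with compound in 2% DMSO. The buffer was 20 mM HEPES-KOH pH 7.3, 50 mM KCl, 5 mM MgCl2, 20 mM Na2MoO4, 2 mM DTT. Background-subtracted mP values read at 485/530 nm were normalized to DMSO wells to give % inhibition.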

Row | Structure (SMILES) | GM displacement from purified Hsp90 measured by FP Inhibition by 5 μM compd. (%)
1 | Nc1ncn(CCC2CCN(C=O)CC2)c2nc(Sc3cc4c(cc3[N+](=O)[O-])OCO4)nc1-2 [compound 65, 4-(2-{6-Amino-8-[(6-nitro-1,3-benzodioxol-5-yl)thio]-3H-purin-3-yl}ethyl)piperidine-1-carbaldehyde] | 25.0
2 | CC(=O)N1CCC(CCn2cnc(N)c3nc(Sc4cc5c(cc4[N+](=O)[O-])OCCO5)nc2-3)CC1 [compound 69, 3-[2-(1-Acetylpiperidin-4-yl)ethyl]-8-[(7-nitro-2,3-dihydro-1,4-benzodioxin-6-yl)thio]-3H-purin-6-amine] | 46.0
3 | CC(=O)N1CCC(CCn2cnc(N)c3nc(Sc4cc5c(cc4[N+](=O)[O-])OCO5)nc2-3)CC1 [compound 71, 3-[2-(1-Acetylpiperidin-4-yl)ethyl]-8-[(6-nitro-1,3-benzodioxol-5-yl)thio]-3H-purin-6-amine] | 23.0
4 | CC(=O)N1CCC(CCn2cnc(N)c3nc(Sc4cc5c(cc4Cl)OCCO5)nc2-3)CC1 [compound 72, 3-[2-(1-Acetylpiperidin-4-yl)ethyl]-8-[(7-chloro-2,3-dihydro-1,4-benzodioxin-6-yl)thio]-3H-purin-6-amine] | 23.0
5 | CCC(=O)N1CCC(CCn2cnc(N)c3nc(Sc4cc5c(cc4C#N)C(=O)CC5)nc2-3)CC1 [compound 74, 6-({6-Amino-3-[2-(1-propionylpiperidin-4-yl)ethyl]-3H-purin-8-yl}thio)-3-oxoindane-5-carbonitrile] | 18.0
6 | COc1ccc(OC(F)(F)F)c(Sc2nc3c(N)ncn(CCC4CCN(C=O)CC4)c-3n2)c1 [compound 78] | 14.0
7 | COc1ccc(C#N)c(Sc2nc3c(N)ncn(CCC4CCN(C=O)CC4)c-3n2)c1 [compound 80] | 34.0
8 | CCCC(=O)N1CCC(CCn2cnc(N)c3nc(Sc4cc5c(cc4Br)OCCO5)nc2-3)CC1 [compound 83, 8-[(7-Bromo-2,3-dihydro-1,4-benzodioxin-6-yl)thio]-3-[2-(1-butyrylpiperidin-4-yl)ethyl]-3H-purin-6-amine] | 19.0
9 | Nc1ncn(CCC2CCN(C=O)CC2)c2nc(Sc3cc4c(cc3Br)CCC4)nc1-2 [compound 85] | 35.0
10 | Nc1ncn(CCC2CCN(C=O)CC2)c2nc(Sc3cc4c(cc3Br)C(=O)CC4)nc1-2 [compound 87, 4-(2-{6-Amino-8-[(6-bromo-1-oxo-2,3-dihydro-1H-inden-5-yl)thio]-3H-purin-3-yl}ethyl)piperidine-l-carbaldehyde] | 20.0
11 | Nc1ncn(CCC2CCN(C(=O)CO)CC2)c2nc(Sc3cc4c(cc3Br)OCCO4)nc1-2 [compound 91, 2-[4-(2-{6-Amino-8-[(7-bromo-2,3-dihydro-1,4-benzodioxin-6-yl)thio]-3H-purin-3-yl}ethyl)piperidin-1-yl]-2-oxoethanol] | 32.0
12 | CC(C)(O)C(=O)N1CCC(CCn2cnc(N)c3nc(Sc4cc5c(cc4Br)OCCO5)nc2-3)CC1 [compound 93, l-[4-(2-{6-Amino-8-[(7-bromo-2,3-dihydro-1,4-benzodioxin-6-yl)thio]-3H-purin-3-yl}ethyl)piperidin-1-yl]-2-methyl-1-oxopropan-2-ol] | 53.0
13 | COc1ccc(Br)c(Sc2nc3c(N)ncn(CCC4CCN(C(=O)CO)CC4)c-3n2)c1 [compound 94, 2-[4-(2-{6-Amino-8-[(2-bromo-5-methoxyphenyl)thio]-3H-purin-3-yl}ethyl)piperidin-1-yl]-2-oxoethanol] | 10.0
14 | C[C@H](O)C(=O)N1CCC(CCn2cnc(N)c3nc(Sc4cc5c(cc4C#N)OCO5)nc2-3)CC1 [compound 96, 6-{[6-Amino-3-(2-{1-[(2S)-2-hydroxypropanoyl]piperidin-4-yl}ethyl)-3H-purin-8-yl]thio}-1,3-benzodioxole-5-carbonitrile] | 13.0
15 | C[C@H](O)C(=O)N1CCC(CCn2cnc(N)c3nc(Sc4cc5c(cc4C#N)OCCO5)nc2-3)CC1 [compound 100, 7-{[6-Amino-3-(2-{1-[(2S)-2-hydroxypropanoyl]piperidin-4-yl}ethyl)-3H-purin-8-yl]thio}-2,3-dihydro-1,4-benzodioxine-6-carbonitrile] | 27.0

same assay, conditions: BODIPY-GM 10 nM, Hsp90 30 nM, overnight at room temperature; read-out: GM displacement from purified Hsp90 measured by FP IC 50

Row | Structure (SMILES) | IC50 [nM]
16 | Nc1ncnc2c1nc(Sc1cc3c(cc1[N+](=O)[O-])OCO3)n2CCC1CCN(C=O)CC1 [compound 64, 4-(2-{6-Amino-8-[(6-nitro-1,3-benzodioxol-5-yl)thio]-9H-purin-9-yl}ethyl)piperidine-1-carbaldehyde] | 1500
17 | Nc1ncnc2c1nc(Sc1cc3c(cc1[N+](=O)[O-])OCCO3)n2CCC1CCN(C=O)CC1 [compound 66, 4-(2-{6-Amino-8-[(7-nitro-2,3-dihydro-1,4-benzodioxin-6-yl)thio]-9H-purin-9-yl}ethyl)piperidine-1-carbaldehyde] | 73
18 | CC(=O)N1CCC(CCn2c(Sc3cc4c(cc3[N+](=O)[O-])OCCO4)nc3c(N)ncnc32)CC1 [compound 68, 9-[2-(1-Acetylpiperidin-4-yl)ethyl]-8-[(7-nitro-2,3-dihydro-1,4-benzodioxin-6-yl)thio]-9H-purin-6-amine] | 50
19 | CC(=O)N1CCC(CCn2c(Sc3cc4c(cc3[N+](=O)[O-])OCO4)nc3c(N)ncnc32)CC1 [compound 70] | 455
20 | CC(=O)N1CCC(CCn2c(Sc3cc4c(cc3Cl)OCCO4)nc3c(N)ncnc32)CC1 [compound 73, 9-[2-(1-Acetylpiperidin-4-yl)ethyl]-8-[(7-chloro-2,3-dihydro-1,4-benzodioxin-6-yl)thio]-9H-purin-6-amine] | 260
21 | CC(=O)N1CCC(CCn2c(Sc3cc4c(cc3CC#N)OCO4)nc3c(N)ncnc32)CC1 [compound 75, [6-({9-[2-(1-Acetylpiperidin-4-yl)ethyl]-6-amino-9H-purin-8-yl}thio)-1,3-benzodioxol-5-yl]acetonitrile] | 2500
22 | Nc1ncnc2c1nc(Sc1cc3c(cc1I)CCC3)n2CCC1CCN(C=O)CC1 [compound 76, 4-(2-{6-Amino-8-[(6-iodo-2,3-dihydro-1H-inden-5-yl)thio]-9H-purin-9-yl}ethyl)piperidine-l-carbaldehyde] | 70
23 | COc1ccc(OC(F)(F)F)c(Sc2nc3c(N)ncnc3n2CCC2CCN(C=O)CC2)c1 [compound 77, 4-[2-(6-Amino-8-{[5-methoxy-2-(trifluoromethoxy)phenyl]thio}-9H-purin-9-yl)ethyl]piperidine-1-carbaldehyde] | 400
24 | COc1ccc(C#N)c(Sc2nc3c(N)ncnc3n2CCC2CCN(C=O)CC2)c1 [compound 79] | 700
25 | CCCC(=O)N1CCC(CCn2c(Sc3cc4c(cc3Br)OCCO4)nc3c(N)ncnc32)CC1 [compound 81, 8-[(7-Bromo-2,3-dihydro-1,4-benzodioxin-6-yl)thio]-9-[2-(1-butyrylpiperidin-4-yl)ethyl]-9H-purin-6-amine] | 100
26 | CCCC(=O)N1CCC(CCn2c(Sc3cc4c(cc3Br)OCO4)nc3c(N)ncnc32)CC1 [compound 82, 8-[(6-Bromo-1,3-benzodioxol-5-yl)thio]-9-[2-(1-butyrylpiperidin-4-yl)ethyl]-9H-purin-6-amine] | 295
27 | Nc1ncnc2c1nc(Sc1cc3c(cc1Br)CCC3)n2CCC1CCN(C=O)CC1 [compound 84] | 20
28 | Nc1ncnc2c1nc(Sc1cc3c(cc1Br)C(=O)CC3)n2CCC1CCN(C=O)CC1 [compound 86, 4-(2{6-Amino-8-[(6-bromo-l-oxo-2,3-dihydro-1H-inden-5-yl)thio]-9H-purin-9-yl}ethyl)piperidine-1-carbaldehyde] | 60
29 | C[C@H](O)C(=O)N1CCC(CCn2c(Sc3cc4c(cc3Br)OCCO4)nc3c(N)ncnc32)CC1 [compound 88, (2S)-1-[4-(2-{6-Amino-8-[(7-bromo-2,3-dihydro-1,4-benzodioxin-6-yl)thio]-9H-purin-9-yl}ethyl)piperidin-1-yl]-1-oxopropan-2-ol] | 80
30 | Nc1ncnc2c1nc(Sc1cc3c(cc1Br)OCCO3)n2CCC1CCN(C(=O)CO)CC1 [compound 90, 2-[4-(2-{6-Amino-8-[(7-bromo-2,3-dihydro-1,4-benzodioxin-6-yl)thio]-9H-purin-9-yl}ethyl)piperidin-1-yl]-2-oxoethanol] | 90
31 | CC(C)(O)C(=O)N1CCC(CCn2c(Sc3cc4c(cc3Br)OCCO4)nc3c(N)ncnc32)CC1 [compound 92, 1-[4-(2-{6-Amino-8-[(7-bromo-2,3-dihydro-1,4-benzodioxin-6-yl)thio]-9H-purin-9-yl}ethyl)piperidin-1-yl]-2-methyl-1-oxopropan-2-ol] | 90
32 | C[C@H](O)C(=O)N1CCC(CCn2c(Sc3cc4c(cc3C#N)OCO4)nc3c(N)ncnc32)CC1 [compound 95, 6-{[6-Amino-9-(2-{1-[(2S)-2-hydroxypropanoyl]piperidin-4-yl}ethyl)-9H-purin-8-yl]thio}-l,3-benzodioxole-5-carbonitrile] | 700
33 | N#Cc1cc2c(cc1Sc1nc3c(N)ncnc3n1CCC1CCN(C(=O)CO)CC1)OCO2 [compound 97, 6-({6-Amino-9-[2-(1-glycoloylpiperidin-4-yl)ethyl]-9H-purin-8-yl}thio)-1,3-benzodioxole-5-carbonitrile] | 350
34 | C[C@H](O)C(=O)N1CCC(CCn2c(Sc3cc4c(cc3C#N)OCCO4)nc3c(N)ncnc32)CC1 [compound 99, 7-{[6-Amino-9-(2-{1-[(2S)-2-hydroxypropanoyl]piperidin-4-yl}ethyl)-9H-purin-8-yl]thio}-2,3-dihydro-1,4-benzodioxine-6-carbonitrile] | 490
